Where two headings read alike, the source gives them in different places.
What was measured:
Assay type in all cases: in vivo
[1] = tested on: androgen dependent tissue (bulbourethral gland); experiment: Local anti-androgen effect and side effects after implant into bulbourethral gland of male sheep (Example 2)
Procedure: The major purpose of the present animal study was to examine the pharmacokinetics, efficacy and safety of the novel local drug delivery system with 2-hydroxyflutamide, a selective antagonist to the androgen receptor (AR). A ceramic based drug delivery product was administered into an androgen dependent tissue (the bulbourethral gland) in male sheep. In total 11 male sheep were divided into two separate groups. One group was given 2-hydroxyflutamide by the local implant delivery system as a single administration into the bulbourethral gland and was monitored during 2 months. Each sheep in this treatment group received the prostate implant by a single dose of 250 mg. The other group only received ceramic formulation without any active drug substance.
The implant drug delivery system was inserted locally, via rectum, into the androgen dependent tissue (bulbourethral gland) through sterile needles during rectal ultrasound guidance. The animals were during anaesthesia throughout the insertion procedure. The sterile ceramic based implant had two major components: calcium sulphate (CaSO4-0.5H2O) and 2-hydroxyflutamide. The composition of the formulation was 250 mg 2-hydroxyflutamide+2.25 g calcium sulphate di-hydrate+5.0 g calcium sulphate hemi-hydrate and it was mixed with solution: 3.5 ml of water solution (with 1% acetic acid and 1% methyl cellulose). […]

[2] = Plasma pharmacokinetics and tissue level after local administration of ceramic-based controlled release composition into dog prostate (Example 1)
Procedure: One week later, the same animals were given 2-hydroxy-flutamide locally by a controlled release pharmaceutical composition in the prostate tissue. The 2-hydroxy- flutamide doses were 0 mg (H1), 30 mg (H3), 60 mg (H2) and 120 mg (H4), and each dog was given one implant only. Where H1 was a control given the composition without 2-hydroxy-flutamide. All doses of 2-hydroxy-flutamide were given after an overnight fast. Dog 1 (H1) and dog 3 (H3) were given an enema preoperatively. After the local prostate application of the pharmaceutical composition through rectum, an antibiotic (Quinolon) was administered in normal doses.
The controlled release pharmaceutical composition was composed of a calcium sulphate ceramic and 2-hydroxy-flutamide (Catalogue No. 161.01, from Micromol). To prepare the implant, a calcium sulfate hemi-hydrate (Calcium Sulfate-0.5-hydrate, Product No. 12090, from Riedel-de Haen) is mixed as a fine-grained powder with water and the active agent to form an injectable paste. The paste solidifies in-vivo in about 5 minutes to a solid implant. The ceramic powder to water ratio is 1:2 and the dose of active agent (30, 60 or 120 mg) is mixed with a total 0.8 ml of paste.
The controlled release pharmaceutical composition was inserted locally into the prostate tissue through needles by ultrasound guidance. The animals were under general anesthesia during the insertion procedure. The needle (15 cm long with an outer diameter of 0.9 mm) was inserted into the prepared rectum (an enema was given preoperatively) and was inserted through the rectal and abdominal wall and positioned in the prostate tissue by ultrasound guidance. The pharmaceutical composition was given as multiple thin strings of approximately 12 mm length and with a diameter of 1-2 mm.
After administration of the controlled release pharmaceutical composition in the prostate tissue, blood samples were taken during 3 weeks. Samples of 1.0 ml were taken from the Cephalic vein at day 0, after 6 hours and then in the morning at day 1, 2, 3, 4, 5, 6, 9, 12, 14, 16, 19 and 20 following the administration of the implant. The blood samples were immediately centrifuged at 3000 rpm and the plasma samples were frozen at −20° C. until analysis.
(§1) After day 20, each dog was terminated with an intravenous dose of a mixture of pentobarbital and potassium. The following organs were surgical removed and frozen: prostate, testis, liver and kidney for the assessment of effect and safety. These organs were carefully examined as a consequence of the local tissue exposure of 2-hydroxy-flutamide and the ceramic-based implant.
Quantification of 2-hydroxy-flutamide in plasma and tissue samples was done by HPLC-MS. HPLC was performed with a Surveyor HPLC system equipped with a CTC Pal autosampler. The analytical column was a Zorbax Eclipse XDB-18 (2.1 mm×50 mm, particle size 5 μm) connected to a guard column. The eluent consisted of solvent A (aqueous formic acid 0.1%) and B (acetonitrile), a linear gradient from 25 to 90% of solvent B in 5 minutes was applied. The proportion of solvent B was then lowered to 25% in one minute and was allowed to equilibrate at this level for two minutes prior to the next injection. The volumetric flow-rate was 200 μL/min and the injection volume was 20 μL. The HPLC column outlet was coupled to a TSQ Quantum Ultra tandem triple quadrupole mass spectrometer (ThermoFinnigan, San José, Calif., USA). The transition of m/z 291 [M-H]^−→205 was used for 2-hydroxy-flutamide and m/z 316 [M-H]^−→273 was used for nilutamide (internal standard). The limit of quantification was 0.50 ng/ml in dog plasma. Calibration samples were prepared by spiking blank plasma samples with 100 μL of solutions of 2-hydroxy-flutamide at different concentrations. […]

dog prostate tissue = experiment: Macroscopic anti-proliferate effect on dog prostate tissue: volume before, weight after, palpation (Example 1); set-up: key to Palpation: 0 = no effect; + = mild effect; ++ = intermediate; +++ = strong effect; settings: for Weight of prostate tissue (after): termination after day 20
Description: as §1, with “implant. The macroscopic pharmacological anti-proliferate effect of 2-hydroxy-flutamide was examined as the volume-weight ratio of the dog prostate tissue before and after the local administration of 2-hydroxy-flutamide as a single controlled release pharmaceutical composition.” for “implant.”

[3] = male, Labrador, plasma, dog H2, 60 mg local prostate implant
[4] = male, Labrador, plasma, dog H3, 30 mg local prostate implant
[5] = male, Labrador, plasma, dog H4, 120 mg local prostate implant

SMILES: CC(C)(O)C(=O)Nc1ccc([N+](=O)[O-])c(C(F)(F)F)c1 [2-hydroxy-flutamide]
- androgen dependent side effect ([1]; 250 mg implant into bulbourethral gland): no androgen dependent side effect observed
- macroscopic effect on the androgen dependent tissue (bulbourethral gland) ([1]; single intra-gland injection of 250 mg implant): decreased volume and weight
- concentration in the prostate tissue ([2]; dogs, after three weeks of treatment with local implant): not possible to quantify
- Cmax after intravenous dosing relative to Cmax after local implant dosing ([2]; dogs, i.v. 25 mg versus local implant 120 mg): about 6 times
- half-life ([2]; male, Labrador, dog, plasma, 30 mg, dog H3, 30 mg local prostate implant, read-out: t1/2 (converted)): 35 h
- half-life ([2]; male, Labrador, dog, plasma, 60 mg, dog H2, 60 mg local prostate implant, read-out: t1/2 (converted)): 45 h
- half-life ([2]; male, Labrador, dog, plasma, 120 mg, dog H4, 120 mg local prostate implant, read-out: t1/2 (converted)): 41 h
- half-life ([2]; male, Labrador, dog, plasma, 120 mg, given in the ceramic composition, three dosed dogs (30, 60, 120 mg), read-out: elimination half-life): 35 to 45 h
- bioavailability ([2]; male, Labrador, dog, plasma, dogs, local prostate implant, on average, read-out: bioavailability from the intraprostate tissue (approximation)): > 100%
- AUC [2, 3]: 4020 ng·h/mL
- Cmax [2, 3]: 69.5 ng/mL
- Tmax [2, 3]: 6 h
- AUC [2, 4]: 990 ng·h/mL
- Cmax [2, 4]: 26.4 ng/mL
- Tmax [2, 4]: 6 h
- AUC [2, 5]: 9410 ng·h/mL
- Cmax [2, 5]: 142 ng/mL
- Tmax [2, 5]: 24 h
- Palpation (dog prostate tissue; dog H2, 60 mg local prostate implant): ++
- Weight of prostate tissue (after) (dog prostate tissue; dog H2, after local administration of 60 mg): 13 g
- volume of prostate tissue (before) (dog prostate tissue; dog H2, before local administration of 60 mg): 13.3 cm^3
- Palpation (dog prostate tissue; dog H3, 30 mg local prostate implant): 0
- Weight of prostate tissue (after) (dog prostate tissue; dog H3, after local administration of 30 mg): 17 g
- volume of prostate tissue (before) (dog prostate tissue; dog H3, before local administration of 30 mg): 12.4 cm^3
- Palpation (dog prostate tissue; dog H4, 120 mg local prostate implant): +++
- Weight of prostate tissue (after) (dog prostate tissue; dog H4, after local administration of 120 mg): 13 g
- volume of prostate tissue (before) (dog prostate tissue; dog H4, before local administration of 120 mg): 11.3 cm^3
- anti-proliferate effect (dog prostate tissue; dogs, local prostate implant, three weeks): clear anti-proliferate effect
- macroscopic effect based on volume (before) and weight (after) (dog prostate tissue; two higher doses (60 mg, H2 and 120 mg, H4) in comparison with placebo (H1) and low dose (30 mg, H3)): resulted in a macroscopic effect

— patent US8936809B2, “Method for treating prostate diseases based on local delivery of active substances” (Lidds AB, priority 2005, dated 2015)
